Measured values taken from patent US20230293482A1, “CENTRAL NERVOUS SYSTEM POTENTIATING COMPOSITION” (priority 2020, published 2023).

Experiments:
Wistar male rats [1] = experiment: Neovascularization, CD31 immunostaining of muscle; type: in vivo; details: 1 mg/kg of body weight for 14 days, compared with control group
Method: Wistar male rats were divided into 2 groups, and thereafter, a tetramer of 2-(3,4-dihydroxyphenyl)-3-(D-glucopyranooxyl)chromenylium-3,5,7-triol (1 mg/kg of body weight) was co-administered. to the laboratory animals for 14 days, Thereafter, the animals were subjected to dissection. A frozen section was prepared from the excised extensor digitorum longus muscle or soleus muscle, and CD31 serving as a neovascularization marker was then detected by applying an immunostaining method.

Wistar male rats [2] = experiment: Blood pressure after repeated administration with/without N-acetylcysteine; type: in vivo
Method: Wistar male rats were divided into 4 groups, and thereafter, 2-(3,4-dihydroxyphenyl)-3-(D-glucopyranooxyl)chromenylium-3,5,7-triol (1 mg/kg of body weight) and/or N-acetylcysteine (100 mg/kg of body weight) were co-administered to the laboratory animals for 14 days. Thereafter, the blood pressure of the animals was measured over time, using a non-heated type sphygmomanometer.

healthy volunteers = experiment: Astringency sensory test, solutions held in oral cavity; type: in vivo, human; details: for concentration at which astringency is exhibited in almost all cases: gradually diluted solutions held in oral cavity, ten healthy volunteers; for astringency felt on oral ingestion: compared with other polyphenol compounds
From the text: Ten healthy volunteers held in their oral cavity, solutions obtained by gradually diluting (2R,3R)-2-(3,4-dihydroxyphenyl)-3,4-dihydro-2H-chromene-3,5,7-triol, and a dimer, a trimer or a tetramer obtained by condensing the above compound by a 4β→8 bond, 2-(3,4-dihydroxyphenyl)chromenylium-3,5,7-triol or 2-(3,4,5-trihydroxylphenyl)chromenylium-3,5,7-triol, 2-(3,4-hydroxyphenyl-3,5,7-trihydroxy-4H-1-benzopyran-4-one (quercetin), (2R,3R)-5,7-dihydroxy-2-(3,4,5-trihydroxyphenyl)-3,4-dihydro-2H-chromen-3-yl] 3,4,5-trihydroxybenzoate (EGCG), (2S)-5-hydroxy-2-(3-hydroxy-4-methoxyphenyl)-7-[(2S,3R,4S,5S,6R)-3,4,5-trihydroxy-6-[[(2R,3R,4R,5R,6S)-3,4,5- trihydroxy-6-methyloxan-2-yl]oxymethyl]oxan-2-yl]oxy -2,3-dihydrochromen-4-one (hesperidin), 7-hydroxy-3-(4-hydroxyphenyl)chromen-4-one (daidzein), and (1E,6E)-1,7-bis(4-hydroxy-3-methoxyphenyl)hepta-1,6-diene-3,5-dione (curcumin), and the concentrations at which the volunteers felt astringency were then observed.

C57BL/6 male mice = experiment: Open field locomotor activity / wakening after single administration; type: in vivo; details: 25 μg/kg of body weight, open field 60 minutes; for locomotor activity: compared with control group; for wakening state: control animals repeated sleeping and wakening
Wistar male rats [3] = experiment: Blood flow of the cremasteric arteriole, 50% effective dose; type: in vivo; details: 1, 10, 100, 1000 μg/kg of body weight intragastric, 60 minutes after administration, laser Doppler
Method: Cannula was inserted into the stomach of Wistar male rats under anesthesia, and the cremaster muscle was prepared, Not only a dimer, a trimer or a tetramer obtained by condensing (2R,3R)-2-(3,4-dihydroxyphenyl)-3,4-dihydro-2H-chromene-3,5,7-triol by a 4β→8 bond, 2-(3,4-dihydroxylphenyl)chromenylium-3,5,7-triol, or 2-(3,4,5-trihydroxyphenyl)chromenylium-3,5,7-triol, but also (2R,3R)-2-(3,4-dihydroxyphenyl)-3,4-dihydro-2H-chromene-3,5,7-triol, 2-(3,4-hydroxyphenyl-3,5,7-trihydroxy-4H-1-benzopyran-4-one (quercetin), (2R,3R)-5,7-dihydroxy-2-(3,4,5-trihydroxyphenyl)-3,4-dihydro-2H-chromen-3-yl] 3,4,5-trihydroxybenzoate (EGCG), (2S)-5-hydroxy-2-(3-hydroxy-4-methoxyphenyl)-7-[(2S,3R,4S,5S,6R)-3,4,5-trihydroxy-6-[[(2R,3R,4R,5R,6S)-3,4,5-trihydroxy-6-methylaxan-2-yl]oxymethyl]oxan-2-yl]oxy-2,3-dihydrochromen-4-one (hesperidin), 7-hydroxy-3(4-hydroxyphenyl)chromen-4-one (daidzein), (1E,6E)-1,7-bis(4-hydroxy-3-methoxyphenyl)hepta-1,6-diene-3,5-dione (curcumin), 5-[(E)-2-(4-hydroxyphenypenyl)ethenyl]-1,3-benzenediol (resveratrol), and (2R,3R)-2-(4-hydroxyphenyl)-3-(3,5-dihydroxyphenyl)-6-[(E)-4-hydroxystyryl]-2,3-dihydrobenzofuran-4-ol (Gnefin C), were administered to the rats at doses of 1, 10, 100, and 1000 μg/kg of body weight. A fluctuation in the blood flow of the cremasteric arteriole 60 minutes after the administration was measured using a laser Doppler blood-flowmeter. […] The 50% effective dose of the compound obtained by condensing (2R,3R)-2-(3,4-dihydroxyphenyl)-3,4-dihydro-2H-chromene-3,5,7-triol by a 4β→8 bond was in the range of 1 to 30 μg/kg of body weight, whereas the 50% effective dose of 2-(3,4-dihydroxyphenyl)chromenylium-3,5,7-triol or 2-(3,4,5-trihydroxylphenyl)chromenylium-3,5,7-triol was in the range of 50 to 100 μg/kg of body weight.

| SMILES | CD31 expression / neovascularization in extensor digitorum longus or soleus muscle (Wistar male rats [1]) | blood pressure change on co-administration with N-acetylcysteine (Wistar male rats [2]; 1 mg/kg of body weight + N-acetylcysteine 100 mg/kg for 14 days) | blood pressure (Wistar male rats [2]; 1 mg/kg of body weight for 14 days, Day 7 and Day 14) | concentration at which astringency is exhibited in almost all cases (healthy volunteers) | locomotor activity (C57BL/6 male mice) | wakening state (C57BL/6 male mice) | fluctuation in the blood flow of the cremasteric arteriole (Wistar male rats [3]) | astringency felt on oral ingestion (healthy volunteers) |
| --- | --- | --- | --- | --- | --- | --- | --- | --- |
| OC[C@H]1OC(Oc2cc3c(O)cc(O)cc3[o+]c2-c2ccc(O)c(O)c2)[C@H](O)[C@@H](O)[C@@H]1O (stereo partly drawn) [2-(3,4-dihydroxyphenyl)-3-(D-glucopyranooxyl)chromenylium-3,5,7-triol] | a significant expression of CD31 was observed | disappeared | significantly decreased | – | – | – | – | – |
| Oc1cc(O)c2c(c1)O[C@H](c1ccc(O)c(O)c1)[C@H](O)[C@H]2c1c(O)cc(O)c2c1O[C@H](c1ccc(O)c(O)c1)[C@H](O)C2 [dimer] | – | – | – | 10 µg/mL | significantly increased | the animals were in a wakening state | dose-dependent blood flow-increasing action | – |
| Oc1cc(O)c2cc(O)c(-c3cc(O)c(O)c(O)c3)[o+]c2c1 [2-(3,4,5-trihydroxylphenyl)chromenylium-3,5,7-triol] | – | – | – | 10 µg/mL | – | – | dose-dependent blood flow-increasing action | strong astringency |
| Oc1cc(O)c2c(c1)O[C@H](c1ccc(O)c(O)c1)[C@H](O)[C@H]2c1c(O)cc(O)c2c1O[C@H](c1ccc(O)c(O)c1)[C@H](O)[C@H]2c1c(O)cc(O)c2c1O[C@H](c1ccc(O)c(O)c1)[C@H](O)C2 [trimer] | – | – | – | 10 µg/mL | significantly increased | the animals were in a wakening state | dose-dependent blood flow-increasing action | – |
| Oc1cc(O)c2cc(O)c(-c3ccc(O)c(O)c3)[o+]c2c1 [2-(3,4-dihydroxyphenyl)chromenylium-3,5,7-triol] | – | – | – | 10 µg/mL | significantly increased | the animals were in a wakening state | dose-dependent blood flow-increasing action | strong astringency |
